Key:
Tiam1/CaMKII complex = type: cell-based; details: bath application (AP5, KN-93) or cotransfection (CaMKIIN)
[1] = system: dendritic spines of CA1 pyramidal neurons in hippocampal organotypic slice cultures; assay: structural LTP; type: cell-based, rat
Rac1 = Rac1 activity in spines by FRET-FLIM sensor during sLTP; type: cell-based, rat; details: change in lifetime of GFP-Rac1 in stimulated spines; uncaging 0.5 Hz
[2] = system: Tiam1 phosphorylation by CaMKII in neurons in dissociated culture; assay: Tiam1 phosphorylation after chemical LTP, Phos-tag SDS-PAGE; type: cell-based, rat; details: KN-93 10 µM; glycine 200 µM for 10 min

Row | Structure (SMILES) | effect on Tiam1/CaMKII interaction after sLTP induction (Tiam1/CaMKII complex) | effect on established sLTP, drug added 5 min after induction ([1]; applied 5 min after sLTP induction) | effect on established sLTP, drug added 15 min after induction ([1]; applied 15 min after sLTP induction) | effect on sLTP, drug added before induction ([1]; applied 30 min before sLTP induction, spines visualized by untagged GFP) | effect on Rac1 activation during sLTP (Rac1) | effect on persistent Tiam1 phosphorylation after chemical LTP [2]
1 | N[C@H](CCCP(=O)(O)O)C(=O)O [AP5, D-(−)-2-Amino-5-phosphonopentanoic acid] | blocked | – | – | – | – | –
2 | O=c1cc(CN2CCOCC2)occ1OCCCCCSc1ccnc2cc(C(F)(F)F)ccc12 [EHT1864] | – | effectively blocked sLTP | effectively blocked sLTP | effectively inhibited sLTP | – | –
3 | COc1ccc(S(=O)(=O)N(CCO)c2ccccc2CN(C)C/C=C/c2ccc(Cl)cc2)cc1 [KN-93] | blocked | – | – | – | effectively blocked the activation of Rac1 | blocked
